Results as given in patent US10493027B2, “Chemically stable compositions of a pharmaceutical active agent in a multi- chambered delivery system for mucosal delivery” (MUCODEL PHARMA LLC, priority 2014, dated 2019).
In brackets after ≈: the same amount, converted by molar mass. Where a name gives a salt, the structure may show the parent alone. Read-outs that look alike come from different tables or passages of the source.

How the values were obtained:
[1] = cited from earlier work
[2] = cited from earlier work; remark: listed apart in the source
[3] = Nalbuphine bioavailability study (Example 14)
[4] = cited from earlier work; remark: listed apart in the source
[5] = orally delivered, mice; cited from earlier work
[6] = cited from earlier work; remark: listed apart in the source
[7] = cited from earlier work; remark: listed apart in the source

In the case of `Oc1ccc2c3c1O[C@H]1[C@@H](O)CC[C@@]4(O)[C@@H](C2)N(CC2CCC2)CC[C@]314` [Nalbuphine], the solubility in water ([1]; Example 14 text) is given as “about 35 mg/g”, the t1/2 ([2]; i.v., 20 mg) is given as 3.7 h and the t1/2 ([2]; p.o., 60 mg) is given as 4.65 h. For the same molecule, the tmax ([2]; p.o., 60 mg) was 0.777 h, the “peak plasma achieved faster than intraoral administration” value ([3]; intranasal) was about 1000% and the “maximum drug plasma concentration higher than conventional oral formulation” value ([3]; intranasal, equivalent dose) was about 500%.
For `C=CCN1CC[C@]23c4c5ccc(O)c4O[C@H]2C(=O)CC[C@@]3(O)[C@H]1C5` [Naloxone HCl, naloxone hydrochloride], the solubility in water ([1]; US EPA EPI Suite reference) is given as 73 mg/mL and the solubility in water ([1]; room temperature) is given as “greater than 70 mg/g”.
In the case of `C=CCN1CC[C@]23c4c5ccc(O)c4O[C@H]2C(=O)CC[C@@]3(O)[C@H]1C5` [Naloxone], the “mean absolute bioavailability of oral Naloxone” value ([4]; healthy subjects, doses 5 mg to 120 mg) is given as “less than or equal to 2%”, the mean absolute bioavailability ([4]; oral PR tablets, 5 mg dose, based on AUCt) is given as 0.9% and the bioavailability [5] is given as 1%. The pKa [6] was “around 7.9” and the solubility in water ([1]; Example 5) was 1.4 mg/mL (≈ 4.28 mM).
For `O=C1CC[C@@]2(O)[C@H]3Cc4ccc(O)c5c4[C@@]2(CCN3CC2CC2)[C@H]1O5` [Naltrexone], the “increase of permeation (factor)” value ([7]; pH of NTX increased from 6.8 to 7.5) is given as 1.6, the “increase of permeation (factor)” value ([7]; pH of NTX increased from 6.8 to 8.5) is given as 4.4 and the permeation enhancement ([7]; with Brij 58, reconstituted human buccal mucosa) is given as 7.7.
For `Oc1ccc2c3c1O[C@H]1[C@@H](O)CC[C@@]4(O)[C@@H](C2)N(CC2CCC2)CC[C@]314` [nalbuphine hydrochloride], the “bioavailability when delivered orally” value ([2]; oral) is listed as “approximately 12%” and the bioavailability ([3]; human, plasma, other: intranasal, 16.8 mg) is listed as over 200%.
